Assay results: patent US8916526B2, “Flavanone derivative” (National University Corporation Okayama University, priority 2009, dated 2014)
Values after ≈ are worked out from the molar mass of the structure shown.

Tests used:
[1] = tested on: Streptococcus pneumoniae R6; assay: In vitro infectivity assay (MIC), Exp. Ex. 2-1; type: cell-based; conditions: Streptococcus pneumoniae, R6; Gram-positive; microdilution, MIC after 24 h; read-out: MIC S. Pneumoniae R6
[2] = tested on: Pseodomonas aeruginosa PAOI; assay: Antibacterial activity (MIC) against Gram-negative strains, microdilution; type: cell-based; conditions: MIC after 24 h, read-out: MIC (Gram-nagative) PAO1
Method in brief: (§1)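 CLSI broth microdilution in Mueller-Hinton broth with 0.85% NaCl, inoculum about 10^5 […]. Incubated 35° C for 24 hours; MIC taken as the minimum inhibitory concentration, measured three times.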

Escherichia coli K-12 = assay: as above; type: cell-based; conditions: K12, MIC after 24 h, read-out: MIC (Gram-nagative) K-12
Method in brief: as §1

[3] = tested on: Methicillin sensitive S. aureus 209P; assay: In vitro infectivity assay (MIC), Exp. Ex. 2-1; type: cell-based, Staphylococcus aureus; conditions: Staphylococcus aureus, 209P / MSSA; Gram-positive; microdilution, MIC after 24 h; read-out: MIC MSSA 209P
Method in brief: (§2)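 Inoculate bacteria (about 10^5 CUF/[…]) into NaCl-supplemented (0.85%) Mueller-Hinton broth with compound dilutions, incubate 24 hours at 35° C, then record the minimum inhibitory concentration. Repeated three times.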

[4] = tested on: Methicillin-resistant S. aureus COL; assay: In vitro infectivity assay (MIC), Exp. Ex. 2-1; type: cell-based, Staphylococcus aureus; conditions: Staphylococcus aureus, MRSA; Gram-positive; microdilution, MIC after 24 h
[5] = tested on: Methicillin-resistant S. aureus OM481; assay: In vitro infectivity assay (MIC), Exp. Ex. 2-1; type: cell-based, Staphylococcus aureus; conditions: Staphylococcus aureus, MRSA; Gram-positive; microdilution, MIC after 24 h; read-out: MIC MRSA OM481
Method in brief: as §2

[6] = tested on: Methicillin-resistant S. aureus N315; assay: In vitro infectivity assay (MIC), Exp. Ex. 2-1; type: cell-based, Staphylococcus aureus; conditions: Staphylococcus aureus, MRSA; Gram-positive; microdilution, MIC after 24 h; read-out: MIC MRSA N315
Method in brief: as §2

[7] = tested on: Methicillin-resistant S. aureus OM584; assay: In vitro infectivity assay (MIC), Exp. Ex. 2-1; type: cell-based, Staphylococcus aureus; conditions: Staphylococcus aureus, MRSA; Gram-positive; microdilution, MIC after 24 h; read-out: MIC MRSA OM584
Method in brief: as §2

[8] = biological target: T1, Staphylococcus aureus Topoisomerase IV (Staphylococcus aureus, UniProt P0C1S7+P0C1U9); assay: Topoisomerase IV inhibition (decatenation kit), Exp. Ex. 2-3; type: biochemical
T1 construct: purchased John Innes Enterprises
T1 sequence (P0C1U9 whole entry): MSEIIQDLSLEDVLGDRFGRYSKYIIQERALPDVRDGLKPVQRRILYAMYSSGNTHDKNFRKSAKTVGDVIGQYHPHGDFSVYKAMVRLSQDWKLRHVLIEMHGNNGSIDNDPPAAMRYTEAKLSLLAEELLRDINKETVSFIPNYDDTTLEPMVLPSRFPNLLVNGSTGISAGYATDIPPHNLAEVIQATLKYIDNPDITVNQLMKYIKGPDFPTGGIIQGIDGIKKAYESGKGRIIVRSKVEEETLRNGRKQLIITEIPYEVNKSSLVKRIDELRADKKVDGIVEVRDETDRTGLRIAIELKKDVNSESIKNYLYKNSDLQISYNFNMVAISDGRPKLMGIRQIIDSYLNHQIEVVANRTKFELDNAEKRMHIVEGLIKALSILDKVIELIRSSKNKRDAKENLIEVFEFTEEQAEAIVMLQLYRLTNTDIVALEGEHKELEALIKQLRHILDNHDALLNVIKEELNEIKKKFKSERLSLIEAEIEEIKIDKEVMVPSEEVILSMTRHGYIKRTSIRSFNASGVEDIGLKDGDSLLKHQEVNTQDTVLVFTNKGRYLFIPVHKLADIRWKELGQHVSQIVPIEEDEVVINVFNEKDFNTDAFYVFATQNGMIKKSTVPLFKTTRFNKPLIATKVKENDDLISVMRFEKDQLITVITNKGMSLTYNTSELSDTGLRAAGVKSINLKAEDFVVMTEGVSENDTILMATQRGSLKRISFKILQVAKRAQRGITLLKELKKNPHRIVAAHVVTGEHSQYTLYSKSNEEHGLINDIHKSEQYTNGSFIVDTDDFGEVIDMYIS
T1 sequence (P0C1S7 whole entry): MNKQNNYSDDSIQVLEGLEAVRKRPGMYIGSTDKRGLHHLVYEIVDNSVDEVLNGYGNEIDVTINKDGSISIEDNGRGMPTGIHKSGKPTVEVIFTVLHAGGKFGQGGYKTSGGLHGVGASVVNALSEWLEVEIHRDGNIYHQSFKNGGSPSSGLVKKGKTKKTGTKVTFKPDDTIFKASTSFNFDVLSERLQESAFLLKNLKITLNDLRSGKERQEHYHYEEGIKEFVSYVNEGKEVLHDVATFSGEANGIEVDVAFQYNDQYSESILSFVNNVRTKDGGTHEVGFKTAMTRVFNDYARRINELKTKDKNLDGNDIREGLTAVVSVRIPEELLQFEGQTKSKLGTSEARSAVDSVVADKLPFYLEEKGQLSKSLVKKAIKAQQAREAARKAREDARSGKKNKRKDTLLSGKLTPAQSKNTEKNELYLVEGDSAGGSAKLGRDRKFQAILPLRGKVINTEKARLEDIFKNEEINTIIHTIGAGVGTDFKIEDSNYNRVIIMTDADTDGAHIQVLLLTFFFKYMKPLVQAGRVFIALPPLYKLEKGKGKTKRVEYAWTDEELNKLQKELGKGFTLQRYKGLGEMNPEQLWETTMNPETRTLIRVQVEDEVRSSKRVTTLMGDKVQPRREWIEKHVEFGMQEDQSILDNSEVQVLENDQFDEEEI
Description: (§3) Staphylococcus aureus Topoisomerase IV and Escherichia coli Topoisomerase IV were purchased from John Innes Enterprises. 1 unit of topoisomerase IV was cultured with 200 ng of kinetoplast DNA (kDNA) in 30 L of a reaction solution at 37° C. for 30 minutes under the conditions of 50 mM Tris-HCl (pH 7.5) (S. aureus)/50 mM HEPES-KOH (pH 7.6) (E. coli), 5 mM MgCl2 (S. aureus)/5 mM magnesium acetate (E. coli), 350 mM potassium glutamate (S. aureus)/100 mM potassium glutamate (E. coli), 5 mM dithiotheri (S. aureus)/10 mM dithiotheri (E. coli), 1.5 mM ATP (S. aureus)/1 mM ATP (E. coli), and 40% (w/v) glycerol. The reactions were stopped by adding 8 L of a reaction stop solution (40% sucrose, 100 mM Tris.HCl (pH 7.5), 1 mM EDTA, 0.5 mg/ml bromophenol blue). Agarose gel (1.0%) was poured into TAE (40 mM Tris acetate, 2 mM EDTA).

[9] = biological target: T2, Escherichia coli Topoisomerase IV (Escherichia coli, UniProt P0AFI2+P20083); assay: as above; type: biochemical; conditions: decatenation of kDNA, 37° C., 30 minutes; read-out: IC50 (E. coli topoisomerase IV inhibitions)
T2 construct: purchased John Innes Enterprises
T2 sequence (P20083 whole entry): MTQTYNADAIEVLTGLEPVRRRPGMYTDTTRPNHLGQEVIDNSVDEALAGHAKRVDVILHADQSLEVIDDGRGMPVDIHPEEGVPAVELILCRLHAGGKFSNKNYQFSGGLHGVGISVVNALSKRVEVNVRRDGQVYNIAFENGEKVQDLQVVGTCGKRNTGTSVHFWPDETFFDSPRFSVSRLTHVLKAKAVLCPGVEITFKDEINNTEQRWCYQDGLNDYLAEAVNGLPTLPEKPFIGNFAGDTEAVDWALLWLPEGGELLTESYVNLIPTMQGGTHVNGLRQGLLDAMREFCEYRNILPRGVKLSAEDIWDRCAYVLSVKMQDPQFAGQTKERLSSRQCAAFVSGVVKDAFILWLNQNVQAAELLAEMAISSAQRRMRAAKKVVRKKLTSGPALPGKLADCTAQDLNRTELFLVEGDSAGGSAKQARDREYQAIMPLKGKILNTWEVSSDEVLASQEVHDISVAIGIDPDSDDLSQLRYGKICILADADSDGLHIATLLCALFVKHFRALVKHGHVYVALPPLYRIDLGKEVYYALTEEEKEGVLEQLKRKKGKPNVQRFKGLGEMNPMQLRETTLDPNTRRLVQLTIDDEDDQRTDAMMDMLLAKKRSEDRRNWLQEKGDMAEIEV
T2 sequence (P0AFI2 whole entry): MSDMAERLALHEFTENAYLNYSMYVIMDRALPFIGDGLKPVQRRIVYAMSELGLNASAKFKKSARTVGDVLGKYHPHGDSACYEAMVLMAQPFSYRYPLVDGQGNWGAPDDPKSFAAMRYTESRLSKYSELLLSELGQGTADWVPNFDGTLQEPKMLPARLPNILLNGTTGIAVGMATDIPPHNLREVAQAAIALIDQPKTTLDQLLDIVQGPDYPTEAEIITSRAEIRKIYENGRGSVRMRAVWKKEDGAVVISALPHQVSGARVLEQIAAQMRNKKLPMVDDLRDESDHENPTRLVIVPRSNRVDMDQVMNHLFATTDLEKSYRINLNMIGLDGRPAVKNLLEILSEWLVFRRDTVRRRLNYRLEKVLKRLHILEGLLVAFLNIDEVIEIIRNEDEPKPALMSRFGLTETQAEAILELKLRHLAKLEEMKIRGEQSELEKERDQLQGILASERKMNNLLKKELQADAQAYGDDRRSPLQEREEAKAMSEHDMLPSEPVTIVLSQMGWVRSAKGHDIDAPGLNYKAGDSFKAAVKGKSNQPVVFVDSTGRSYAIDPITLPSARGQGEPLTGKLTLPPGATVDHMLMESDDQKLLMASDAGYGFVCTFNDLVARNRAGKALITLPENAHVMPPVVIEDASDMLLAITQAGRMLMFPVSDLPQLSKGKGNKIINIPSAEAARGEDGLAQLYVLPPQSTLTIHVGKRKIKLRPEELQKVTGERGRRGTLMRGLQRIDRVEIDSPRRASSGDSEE
Description: as §3

E. coli DNA gyrase = biological target: T3, E. coli DNA gyrase (Escherichia coli, UniProt P0AES4+P0AES6); assay: DNA gyrase inhibition (supercoiling kit), Exp. Ex. 2-2; type: biochemical
T3 construct: purchased John Innes Enterprises #K0001
T3 sequence (P0AES4 whole entry, one chain of several): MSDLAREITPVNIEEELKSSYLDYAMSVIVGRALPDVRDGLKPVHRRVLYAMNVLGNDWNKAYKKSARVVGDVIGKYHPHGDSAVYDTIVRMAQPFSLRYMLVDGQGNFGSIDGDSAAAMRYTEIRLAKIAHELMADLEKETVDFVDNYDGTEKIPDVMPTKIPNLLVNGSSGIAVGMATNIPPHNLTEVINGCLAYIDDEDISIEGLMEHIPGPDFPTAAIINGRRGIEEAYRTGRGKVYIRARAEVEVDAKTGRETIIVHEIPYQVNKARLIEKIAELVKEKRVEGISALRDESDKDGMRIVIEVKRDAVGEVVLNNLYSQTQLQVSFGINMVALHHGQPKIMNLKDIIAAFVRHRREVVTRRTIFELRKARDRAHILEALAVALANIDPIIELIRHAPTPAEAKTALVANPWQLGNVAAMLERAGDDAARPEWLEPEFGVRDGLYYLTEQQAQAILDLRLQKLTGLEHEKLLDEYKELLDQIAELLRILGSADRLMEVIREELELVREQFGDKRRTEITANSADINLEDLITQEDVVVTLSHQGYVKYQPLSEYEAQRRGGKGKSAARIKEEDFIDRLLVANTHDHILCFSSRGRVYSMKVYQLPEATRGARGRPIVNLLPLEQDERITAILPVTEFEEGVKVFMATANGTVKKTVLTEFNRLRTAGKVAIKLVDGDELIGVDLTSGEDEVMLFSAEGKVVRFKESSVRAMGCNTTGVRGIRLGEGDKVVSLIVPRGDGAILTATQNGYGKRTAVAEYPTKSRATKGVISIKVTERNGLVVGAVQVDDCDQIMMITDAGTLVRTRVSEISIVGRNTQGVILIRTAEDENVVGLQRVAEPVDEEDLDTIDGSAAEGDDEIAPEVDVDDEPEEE
Method in brief: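 IC50 derived from gel electrophoresis separating supercoiled from relaxed DNA. Reactions ran 30 minutes at 37° C with 1 U gyrase, […] relaxed pBR322, 1 mM ATP and 4 mM MgCl2 in Tris-HCl buffer (pH 7.5), then stopped with EDTA-containing solution.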

[10] = tested on: Vancomycin-resistant enterococci NCTC 12201; assay: In vitro infectivity assay (MIC), Exp. Ex. 2-1; type: cell-based; conditions: Enterococcus, NCTC 12201 / VRE; Gram-positive; microdilution, MIC after 24 h; read-out: MIC VRE NCTC 12201
Description: (§4) The antibacterial activities were measured based on broth dilution techniques of international standards (Clinical Laboratory Standards Institute: CLSI). The activities were shown by minimum inhibitory concentrations (MICs) determined by inoculating the above-mentioned strains at a concentration of about 10^5 […] into Mueller-Hinton broth (manufactured by Difco) containing 0.85% NaCl in 96-well microplates and incubating the plates at 35° C. for 24 hours. Measurement was carried out three times.
(§5) The antibacterial activities of the compounds of the present invention against various strains such as vancomycin-resistant enterococci (VRE), vancomycin intermediate-resistant Staphylococcus aureus (VISA), methicillin-resistant Staphylococcus aureus (MRSA), and methicillin-sensitive Staphylococcus aureus (MSSA) were examined. Of the bacteria used in MIC measurement in this test example, clinical bacteria of MRSA (OM481 strain and OM584 strain) were supplied from Okayama University Hospital (Japan). An MRSA strain N315, a vancomycin intermediate-resistant Staphylococcus aureus (VISA) strain Mu50, and a methicillin-sensitive Staphylococcus aureus (MSSA) strain FDA 209P were used as controls. Vancomycin-resistant enterococcus (VRE) strains NCTC 12201 and FN-1 were supplied from the National Institute of Infectious Disease (Japan).

[11] = tested on: Vancomycin-resistant enterococci FN-1; assay: In vitro infectivity assay (MIC), Exp. Ex. 2-1; type: cell-based; conditions: Enterococcus, VRE; Gram-positive; microdilution, MIC after 24 h; read-out: MIC VRE FN-1
Description: as §4, §5

[12] = tested on: Vancomycin intermediate-resistant Staphylococcus aureus Mu50; assay: In vitro infectivity assay (MIC), Exp. Ex. 2-1; type: cell-based; conditions: Staphylococcus aureus, VISA; Gram-positive; microdilution, MIC after 24 h; read-out: MIC VISA Mu50
Description: as §4, §5

| Compound | MIC [1] [mg/L] | MIC [2] [mg/L] | MIC (Escherichia coli K-12) [mg/L] | MIC [3] [mg/L] | MIC [4] [mg/L] | MIC [5] [mg/L] | MIC [6] [mg/L] | MIC [7] [mg/L] | melting point [°C] | IC50 [8] [µM] | IC50 [9] [µM] | IC50 (E. coli DNA gyrase) [µM] | MIC [10] [mg/L] | MIC [11] [mg/L] | MIC [12] [mg/L] |
| --- | --- | --- | --- | --- | --- | --- | --- | --- | --- | --- | --- | --- | --- | --- | --- |
| CCCc1ccc(C(=O)OC[C@H]2O[C@@H](Oc3c(-c4ccc(O)c(O)c4)oc4cc(O)cc(O)c4c3=O)[C@H](OC(=O)c3ccc(CCC)cc3)[C@@H](O)[C@H]2O)cc1 [Compound 14b] | 2 (≈ 2.64 µM) | > 128 | > 128 | 2 (≈ 2.64 µM) | 16 (≈ 21.1 µM) | 4 (≈ 5.29 µM) | 2 (≈ 2.64 µM) | 4 (≈ 5.29 µM) | 150 to 151 | 1.93 | 8.89 | 0.77 | 4 (≈ 5.29 µM) | 8 (≈ 10.6 µM) | 4 (≈ 5.29 µM) |
| O=C(CCc1ccc(O)cc1)OC[C@H]1O[C@@H](Oc2c(-c3ccc(O)c(O)c3)oc3cc(O)cc(O)c3c2=O)[C@H](OC(=O)CCc2ccc(O)cc2)[C@@H](O)[C@H]1O [Compound 14f, 2-(3′,4′-Dihydroxyphenyl)-5,7-dihydroxy-3-β-D-{2″,6″-di-O-[3′″-(4-hydroxyphenylpropanoyl)]}galactosyl-4H-chromen-4-one] | 4 (≈ 5.26 µM) | > 128 | > 128 | 2 (≈ 2.63 µM) | 4 (≈ 5.26 µM) | 1 (≈ 1.31 µM) | 2 (≈ 2.63 µM) | 1 (≈ 1.31 µM) | 149 to 150 | 1.59 | 8.86 | 2.39 | 4 (≈ 5.26 µM) | 4 (≈ 5.26 µM) | 2 (≈ 2.63 µM) |
| Cc1ccc(CC(=O)OC[C@H]2O[C@@H](Oc3c(-c4ccc(O)c(O)c4)oc4cc(O)cc(O)c4c3=O)[C@H](OC(=O)Cc3ccc(C)cc3)[C@@H](O)[C@H]2O)cc1 [Compound 14d, 2-(3′,4′-Dihydroxyphenyl)-5,7-dihydroxy-3-β-D-[2″,6″-di-O-(4-methylphenylacetyl)]galactosyl-4H-chromen-4-one] | 2 (≈ 2.74 µM) | > 128 | > 128 | 4 (≈ 5.49 µM) | 16 (≈ 22 µM) | 2 (≈ 2.74 µM) | 8 (≈ 11 µM) | 2 (≈ 2.74 µM) | 125 to 127 | 2.69 | 8.52 | 2.21 | 4 (≈ 5.49 µM) | 8 (≈ 11 µM) | 4 (≈ 5.49 µM) |
| CCOc1ccc(C(=O)OC[C@H]2O[C@@H](Oc3c(-c4ccc(O)c(O)c4)oc4cc(O)cc(O)c4c3=O)[C@H](OC(=O)c3ccc(OCC)cc3)[C@@H](O)[C@H]2O)cc1 [Compound 14a, 2-(3″,4″-Dihydroxyphenyl)-5,7-dihydroxy-3-β-D-[2″,6″-di-O-(4-ethoxybenzoyl)]galactosyl-4H-chromen-4-one] | 4 (≈ 5.26 µM) | > 128 | > 128 | 4 (≈ 5.26 µM) | 16 (≈ 21 µM) | 4 (≈ 5.26 µM) | 8 (≈ 10.5 µM) | 4 (≈ 5.26 µM) | 108 to 110 | 1.78 | 7.33 | 0.43 | 8 (≈ 10.5 µM) | 8 (≈ 10.5 µM) | 4 (≈ 5.26 µM) |
